# Measurements published in US20090197929A1, “Azolylmethyloxiranes, Their Use for Controlling Phytopathogenic Fungi and Agents Containing Said Compounds” (BASF SE, priority 2006, published 2009).
# Assays:
# Pyrenophora teres = experiment: Activity against net blotch of barley caused by Pyrenophora teres at 1 day protective application (Pyrnte P1); type: in vivo, Pyrenophora [syn. Drechslera] teres on barley; settings: 250 ppm active compound, potted barley seedlings sprayed to runoff, inoculated after 24 hours, assessed after 6 days; untreated plants 90% infected
# Method: The active compounds were prepared separately or jointly as a stock solution comprising 25 mg of active compound which was made up to 10 ml using a mixture of acetone and/or DMSO and the emulsifier Wettol EM 31 (wetting agent having emulsifying and dispersing action based on ethoxylated alkylphenols) in a volume ratio of solvent/emulsifier of 99:1. The mixture was then made up to 100 ml with water. This stock solution was diluted with the solvent/emulsifier/water mixture described to give the concentration of active compound stated below. Leaves of potted barley seedlings were sprayed to runoff point with an aqueous suspension having the active compound concentration stated below. 24 hours after the spray coat had dried on, the test plants were inoculated with an aqueous spore suspension of Pyrenophora [syn. Drechslera] teres, the net blotch pathogen. The test plants were then placed in a greenhouse at temperatures between 20 and 24° C. and at 95 to 100% relative atmospheric humidity. After 6 days, the extent of the development of the disease was determined visually in % infection of the entire leaf area.
# Puccinia recondita = experiment: Protective activity against Puccinia recondita on wheat (brown rust of wheat) (Puccrt P1); type: in vivo; settings: 250 ppm active compound, potted wheat seedlings sprayed to runoff, inoculated next day; untreated plants 90% infected
# Method: The active compounds were prepared separately or jointly as a stock solution comprising 25 mg of active compound which was made up to 10 ml using a mixture of acetone and/or DMSO and the emulsifier Wettol EM 31 (wetting agent having emulsifying and dispersing action based on ethoxylated alkylphenols) in a volume ratio of solvent/emulsifier of 99:1. The mixture was then made up to 100 ml with water. This stock solution was diluted with the solvent/emulsifier/water mixture described to give the concentration of active compound stated below. Leaves of potted wheat seedlings were sprayed to runoff point with an aqueous suspension having the active compound concentration stated below. The next day, the treated plants were inoculated with a spore suspension of brown rust of wheat (Puccinia recondita). The plants were then placed in a chamber with high atmospheric humidity (90 to 95%) at 20 to 22° C. for 24 hours. During this time, the spores germinated and the germ tubes penetrated into the leaf tissue. The next day, the test plants were returned to the greenhouse and cultivated at temperatures between 20 and 22° C. and at 65 to 70% relative atmospheric humidity for a further 7 days. The extent of the rust fungus development on the leaves was then determined visually.
structure (smiles),measurement,setting,value
"Fc1ccc([C@@]2(Cn3cncn3)O[C@@H]2c2cc(Cl)sc2Cl)cc1 (racemic) [1-{[(2SR,3RS)-3-(2,5-dichlorothiophen-3-yl)-2-(4-fluorophenyl)oxiran-2-yl]methyl}-1H-1,2,4-triazole]","infection (% infection of the entire leaf area, determined visually)",Pyrenophora teres,15%
same,"infection (extent of rust fungus development on the leaves, determined visually)",Puccinia recondita,0%
